Assay results as given in US20240294572A1, “Antimicrobial Peptides” (priority 2021, published 2024).
Residues, ends and D or L forms follow the SMILES beside them. *: point of attachment. Decanoyl = CCCCCCCCCC(=O)*

Assays:
Assay in all cases: Mass spectrometry of mouse plasma proteins bound to bead-immobilized peptide
Assay type in all cases: binding
Details in all cases: intensity bound to L-form / D-form of C10-KR8
[1] = molecular target: T1, Apolipoprotein C-I (P34928) (Mus musculus, UniProt P34928)
T1 construct: incubated with 5% mouse plasma; from tissue; host or cells: mouse plasma (5%)
T1 sequence (P34928 27-88): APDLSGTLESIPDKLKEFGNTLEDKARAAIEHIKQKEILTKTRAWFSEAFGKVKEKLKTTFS
Experimental: (§1) Dynabeads M-370 amine (2×10^9 beads/mL, 50 μL; Thermo Fisher Scientific) were washed 3 times in sterile PBS (1 mL; GIBCO) and reacted with a bifunctional SM(PEG)4 cross-linker (5 mg/mL in DMSO) containing N-hydroxysuccinimide (NHS) ester and maleimide functional groups. A stable covalent bond between the amino group of beads and the NHS ester of the cross-linker was formed in PBS at pH 7.2 at room temperature for 24 hours with shaking at 80 rpm. The beads were then washed six times with PBS to remove nonreacted cross-linker. Next, peptide C10-KR8 (with a cysteine at the N-terminus) at 5 mg/mL was reacted with the free maleimide group in PBS for 24 hours at room temperature with shaking at 80 rpm. Another round of washing was conducted to remove the nonreacted peptides. Both the L-and D-forms of the peptide were coupled in the same manner. A portion of the beads without peptide coupling was saved as a control.
(§2) For serum binding experiments, the beads were resuspended in 500 μL of PBS; 200-μL aliquots of the coated and control dynabead were incubated with 5% mouse plasma for 18 hours at 37° C. After binding, the beads were washed six times with PBS to remove unbound proteins. Finally, the beads were suspended in 50 μL of PBS for mass spectrophotometric analysis to identify peptide-binding partners.
(§3) The samples were reduced by 10 mM dithiothreitol (DTT) and incubated for 30 minutes at 56° C. and back to room temperature. A final concentration of 50 mM iodoacetamide was added to alkylate free cysteines followed by further incubation for 20 min in the dark. Bound proteins were enzymatically digested by trypsin (4 μL of 0.5 μg/mL) overnight. A 60 […] portion was transferred to a new Eppendorf® tube and dried for 2 hours. The samples were then dissolved in 20 μL of 2% acetonitrile with 0.1% formic acid before being loaded to Q-tip columns (Pepclean, C18 spin column). Column was activated by pipetting in and out (4× times), 10 μL of 70% acetonitrile with 0.1% formic acid, and equilibrating with the same volume of 2% acetonitrile with 0.1% formic acid. Binding of the samples was done by mixing more than 10 × times, followed by washing in the same buffer (2% acetonitrile with 0.1% formic acid). The bound peptides were then eluted with 20 μL of 70% acetonitrile with 0.1% formic acid. Samples were subjected to LC-MS analysis after being suspended in the desired buffer.
(§4) Extracted peptides were resuspended in 2% acetonitrile (ACN) and 0.1% formic acid (FA) and loaded onto trap column Acclaim™ PepMap™ 100 75 μm×2 cm C18 LC Columns (Thermo Scientific) at a flow rate of 4 μL/minute. These were then separated with a Thermo RSLC UltiMate™ 3000 on a Thermo Easy-Spray PepMap™ M RSLC C18 75 μm×50 cm C-18 2 μm column (Thermo Scientific) with a step gradient of 4-25% solvent B (0.1% FA in 80% ACN) from 10 to 37 minutes and 25-45% solvent B for 37-46 minutes at 300 nL/min and 50° C. with a 70 minute total run time. Eluted peptides were analyzed by a Thermo Orbitrap Fusion™ Lumos™ Tribrid™ (Thermo Scientific) mass spectrometer in a data dependent acquisition mode. A survey full scan MS (from m/z 350-1800) was acquired in the orbitrap with a resolution of 120000. The AGC target for MS1 was set as 4×10^5 and the ion filling time set as 100 ms. The most intense ions with charge state 2-6 were isolated in 3 second cycle and fragmented using HCD fragmentation with 40% normalized collision energy and detected at a mass resolution of 30000 at 200 m/z. The AGC target for MS/MS was set as 5×10^4 and ion filling time set 60 ms dynamic exclusion was set for 30 seconds with a 10 ppm mass window. Protein identification was performed by searching MS/MS data against the Swiss-Prot mouse protein database. The search was set up for full tryptic peptides with a maximum of two missed cleavage sites. Acetylation of protein N-terminus and oxidized methionine were included as variable modifications, and carbamidomethylation of cysteine was set as fixed modification. […]

Serum albumin (P07724) = molecular target: T2, Serum albumin (P07724) (Mus musculus, UniProt P07724)
T2 construct: incubated with 5% mouse plasma; from tissue; host or cells: mouse plasma (5%)
T2 sequence (P07724 25-608): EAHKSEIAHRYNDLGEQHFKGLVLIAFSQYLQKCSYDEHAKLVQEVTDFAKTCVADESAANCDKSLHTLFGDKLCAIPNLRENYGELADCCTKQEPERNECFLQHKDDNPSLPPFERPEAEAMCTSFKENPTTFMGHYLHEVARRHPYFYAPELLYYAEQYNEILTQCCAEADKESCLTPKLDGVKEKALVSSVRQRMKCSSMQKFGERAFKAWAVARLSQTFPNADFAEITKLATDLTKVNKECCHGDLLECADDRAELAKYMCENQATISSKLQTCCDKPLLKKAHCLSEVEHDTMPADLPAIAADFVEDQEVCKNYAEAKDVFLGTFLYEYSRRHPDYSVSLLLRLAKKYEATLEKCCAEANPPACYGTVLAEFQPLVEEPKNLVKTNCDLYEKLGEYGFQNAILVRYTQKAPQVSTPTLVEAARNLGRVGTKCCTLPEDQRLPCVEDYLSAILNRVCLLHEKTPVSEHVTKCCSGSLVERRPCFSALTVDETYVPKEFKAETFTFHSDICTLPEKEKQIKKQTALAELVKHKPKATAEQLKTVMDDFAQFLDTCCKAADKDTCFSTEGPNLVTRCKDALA
Experimental: as §1, §2, §3, §4

[2] = molecular target: T3, Apolipoprotein A-II (P09813) (Mus musculus, UniProt P09813)
T3 construct: incubated with 5% mouse plasma; from tissue; host or cells: mouse plasma (5%)
T3 sequence (P09813 19-102): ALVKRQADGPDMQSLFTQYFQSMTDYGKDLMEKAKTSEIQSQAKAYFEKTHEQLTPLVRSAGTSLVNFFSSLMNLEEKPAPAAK
Experimental: as §1, §2, §3, §4

[3] = molecular target: T4, Apolipoprotein A-I (Q00623) (Mus musculus, UniProt Q00623)
T4 construct: incubated with 5% mouse plasma; from tissue; host or cells: mouse plasma (5%)
T4 sequence (Q00623 19-264): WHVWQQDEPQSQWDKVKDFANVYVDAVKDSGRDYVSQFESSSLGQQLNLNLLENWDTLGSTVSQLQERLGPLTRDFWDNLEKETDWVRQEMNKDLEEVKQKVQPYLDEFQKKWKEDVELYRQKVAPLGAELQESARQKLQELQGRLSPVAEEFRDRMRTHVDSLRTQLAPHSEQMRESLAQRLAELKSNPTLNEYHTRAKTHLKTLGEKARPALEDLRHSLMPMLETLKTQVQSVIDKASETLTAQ
Experimental: as §1, §2, §3, §4

[4] = molecular target: T5, Apolipoprotein E (P08226) (Mus musculus, UniProt P08226)
T5 construct: incubated with 5% mouse plasma; from tissue; host or cells: mouse plasma (5%)
T5 sequence (P08226 19-311): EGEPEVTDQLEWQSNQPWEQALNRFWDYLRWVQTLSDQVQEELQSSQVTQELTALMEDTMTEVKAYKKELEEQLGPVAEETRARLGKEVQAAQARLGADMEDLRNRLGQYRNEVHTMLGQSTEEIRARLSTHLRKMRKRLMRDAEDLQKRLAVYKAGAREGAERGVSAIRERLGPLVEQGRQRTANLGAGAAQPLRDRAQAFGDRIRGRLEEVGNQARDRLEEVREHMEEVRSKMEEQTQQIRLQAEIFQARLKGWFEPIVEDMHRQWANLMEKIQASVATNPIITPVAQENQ
Experimental: as §1, §2, §3, §4

[5] = molecular target: T6, Apolipoprotein A-IV (P06728) (Mus musculus, UniProt P06728)
T6 construct: incubated with 5% mouse plasma; from tissue; host or cells: mouse plasma (5%)
T6 sequence (P06728 21-395): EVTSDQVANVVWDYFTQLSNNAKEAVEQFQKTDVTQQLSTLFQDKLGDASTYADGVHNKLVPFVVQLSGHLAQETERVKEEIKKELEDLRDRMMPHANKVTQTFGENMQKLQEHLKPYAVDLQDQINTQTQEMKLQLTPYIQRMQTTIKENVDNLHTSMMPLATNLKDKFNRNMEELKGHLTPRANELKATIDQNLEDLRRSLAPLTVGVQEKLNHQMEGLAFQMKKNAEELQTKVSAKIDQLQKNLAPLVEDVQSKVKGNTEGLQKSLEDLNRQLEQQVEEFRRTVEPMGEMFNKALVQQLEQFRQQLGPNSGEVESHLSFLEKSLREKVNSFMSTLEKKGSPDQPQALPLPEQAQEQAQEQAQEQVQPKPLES
Experimental: as §1, §2, §3, §4

SMILES: CCCCCCCCCC(=O)N[C@@H](CCCCN)C(=O)N[C@@H](CCCNC(=N)N)C(=O)N[C@H](C(=O)N[C@@H](Cc1c[nH]c2ccccc12)C(=O)N[C@@H](CCC(N)=O)C(=O)N[C@@H](CCCNC(=N)N)C(=O)N[C@H](C(=O)N[C@@H](CCCCN)C(N)=O)[C@@H](C)CC)[C@@H](C)CC [Peptide C10-KR8] (Decanoyl-KRIWQRIK-NH2)
- L/D Ratio, Apolipoprotein C-I [1]: 2.08
- L/D Ratio, Serum albumin (Serum albumin (P07724)): 2.28
- L/D Ratio, Apolipoprotein A-II [2]: 0.00147
- L/D Ratio, Apolipoprotein A-I [3]: 3.54
- L/D Ratio, Apolipoprotein E [4]: 0.811
- L/D Ratio, Apolipoprotein A-IV [5]: 2.89
